Our source for the Drug uptake values is ChEMBL document CHEMBL1806489, “Synthesis and biological evaluation of novel F-18 labeled pyrazolo[1,5-a]pyrimidine derivatives: potential PET imaging agents for tumor detection” (Bioorg Med Chem Lett, 2011).

Holding throughout (format): ADME, cell-based
Data set [1] relates to CCRF S-180. In words: Cellular uptake in mouse S180 cells after 30 mins. The settings on record: ccrf s-180, 0.5 h.
Data set [2] relates to CCRF S-180. Put plainly: Cellular uptake in mouse S180 cells after 60 mins. The settings on record: ccrf s-180, 1 h.
Data set [3] concerns CCRF S-180. Put plainly: Cellular uptake in mouse S180 cells relative to [18F]FDG.

Turning to `O=C[C@H]([18F])[C@@H](O)[C@H](O)[C@H](O)CO`, the Drug uptake result in data set [1] is on record as “Active”; in data set [2], 9%.

With `N[C@@H](Cc1ccc(OCC[18F])cc1)C(=O)O` [FLORETYROSINE F18], the Drug uptake in data set [3] is listed as less than 7%; in data set [2] it was 9%.
